According to ChEMBL document CHEMBL1142956, “Small molecule inhibitors of histone arginine methyltransferases: homology modeling, molecular docking, binding mode analysis, and biological evaluations” (J Med Chem, 2007):

What was measured:
RmtA = RmtA (Emericella nidulans, UniProt Q5VLE3); test: Inhibition of Aspergillus nidulans recombinant GST-RmtA expressed in BL21 cells
[1] = target: Protein arginine N-methyltransferase 1 (Homo sapiens, UniProt Q99873); test: Inhibition of human recombinant GST-PRMT1 expressed in BL21 cells

Row | Structure (SMILES) | IC50 (RmtA) | IC50 [1] | IC50 (RmtA; bl21)
1 | O=C(Nc1ccccc1)Nc1ccc2c(O)cc(S(=O)(=O)O)cc2c1 | 1080 µM |  | 
2 | Nc1ccc(C(=O)O)c(-c2c3ccc(=O)cc-3oc3cc(O)ccc23)c1 | 710 µM |  | 
3 | O=C1NC(=O)C(=Nn2c(=O)[nH]c(=O)[nH]c2=O)C(=O)N1 | > 164 µM | > 164 µM | 
4 | Nc1ccc2c(O)cc(S(=O)(=O)O)cc2c1 | 590 µM |  | 
5 | Nc1c(Br)cc(C(=O)O)c(-c2c3cc(Br)c(=O)c(Br)c-3oc3c(Br)c(O)c(Br)cc23)c1Br | 22.3 µM | 4.8 µM | 
6 | CN(C)c1ccc(/N=N/c2ccc(S(=O)(=O)O)cc2)cc1 | 490 µM |  | 
7 | O=C(O)c1ccc(Nc2nc(Cl)nc(Cl)n2)cc1 | 406 µM |  | 
8 | O=C(Nc1ccc2c(O)cc(S(=O)(=O)O)cc2c1)Nc1ccc2c(O)cc(S(=O)(=O)O)cc2c1 | 88 µM |  | 
9 | CC1=CC(=O)C(C(C)C)=C/C1=C(/c1cc(C(C)C)c(O)cc1C)c1ccccc1C(=O)O | > 217 µM | > 217 µM | 
10 | O=C1C=CC(=C(c2ccc(O)cc2)c2ccccc2S(=O)(=O)O)C=C1 | > 263 µM |  | 
11 | O=C(O)c1ccc(Nc2nc(Cl)nc(Cl)n2)cc1-c1c2ccc(=O)cc-2oc2cc(O)ccc12 | 73 µM |  | 
12 | O=C1C=CC(=C(c2ccc(O)cc2)c2ccccc2C(=O)O)C=C1 | 296 µM | 885 µM | 
13 | CC1=C(CN(CC(=O)O)CC(=O)O)C(=O)C(C(C)C)=C/C1=C(\c1ccccc1S(=O)(=O)O)c1cc(C(C)C)c(O)c(CN(CC(=O)O)CC(=O)O)c1C | > 34 µM | > 34 µM | 
14 | O=c1cc2oc3cc(O)c(O)cc3c(-c3ccccc3)c-2cc1O | 160 µM |  | 
15 | O=[N+]([O-])c1ccc2c(/N=N/c3cccc4ccccc34)c(O)cc(S(=O)(=O)O)c2c1 | 103 µM |  | 
16 | CN(C)c1ccc(/N=N/c2ccccc2C(=O)O)cc1 | 2100 µM |  | 
17 | O=C(O)c1ccccc1-c1c2cc(Br)c(=O)c(Br)c-2oc2c(Br)c(O)c(Br)cc12 | 0.18 µM | 1.4 µM | 
18 | O=S(=O)(O)c1cc(O)c2ccc(NC(=S)Nc3ccccc3)cc2c1 | 1360 µM |  | 
19 | Nc1cc(S(=O)(=O)O)cc2cc(S(=O)(=O)O)cc(O)c12 | 220 µM |  | 
20 | O=C1c2ccccc2C(=O)c2c1ccc(O)c2O [ATHRAQUINONES A] | 1220 µM |  | 
21 | COc1cc(/C=C/C(=O)CC(=O)/C=C/c2ccc(O)c(OC)c2)ccc1O [CURCUMIN] | 1100 µM |  | 
22 | O=C1OC2(c3ccc(O)cc3Oc3cc(O)ccc32)c2ccccc21 [FLUORESCEIN] | 123 µM |  | 
23 | Cc1cc(C(=C2C=CC(=N)C=C2)c2ccc(N)cc2)ccc1N [FUCHSIN, BASIC] |  |  | 515 µM
24 | O=C1NS(=O)(=O)c2ccccc21 [SACCHARIN] | > 510 µM | > 510 µM | 
25 | Cc1ccc(C(=O)Nc2ccc(S(=O)(=O)O)c3cc(S(=O)(=O)O)cc(S(=O)(=O)O)c23)cc1NC(=O)c1cccc(NC(=O)Nc2cccc(C(=O)Nc3cc(C(=O)Nc4ccc(S(=O)(=O)O)c5cc(S(=O)(=O)O)cc(S(=O)(=O)O)c45)ccc3C)c2)c1 [SURAMIN] | 5.9 µM | 18.1 µM | 
